Among the data in patent publication US20240383901A1, “SUBSTITUTED PYRROLO[2,3-D]PYRIMIDINES, THEIR PREPARATION AND THEIR THERAPEUTIC APPLICATION” (SANOFI, priority 2021, published 2024) are IC50 values, retold here.

Where only a bound is given, the exact number is not on record here.

The target of the assay is LRRK2 (Homo sapiens, UniProt Q5S007). Description: LRRK2 WT assay (Assay B, radiometric 33P-ATP filter binding). The settings on record: Assay B (values marked *). The class given is biochemical. As for the experimental part: LRRK2(human) is incubated with 50 mM HEPES pH 8.0, 0.2 mM EDTA, 0.01% Brij-35, 1% (w/v) BSA, 5 mM DTT, 250 Mm […], 10 mM Magnesium acetate and [[…]]-ATP (specific activity and concentration as required).
LRRK2, sequence (Q5S007 whole entry): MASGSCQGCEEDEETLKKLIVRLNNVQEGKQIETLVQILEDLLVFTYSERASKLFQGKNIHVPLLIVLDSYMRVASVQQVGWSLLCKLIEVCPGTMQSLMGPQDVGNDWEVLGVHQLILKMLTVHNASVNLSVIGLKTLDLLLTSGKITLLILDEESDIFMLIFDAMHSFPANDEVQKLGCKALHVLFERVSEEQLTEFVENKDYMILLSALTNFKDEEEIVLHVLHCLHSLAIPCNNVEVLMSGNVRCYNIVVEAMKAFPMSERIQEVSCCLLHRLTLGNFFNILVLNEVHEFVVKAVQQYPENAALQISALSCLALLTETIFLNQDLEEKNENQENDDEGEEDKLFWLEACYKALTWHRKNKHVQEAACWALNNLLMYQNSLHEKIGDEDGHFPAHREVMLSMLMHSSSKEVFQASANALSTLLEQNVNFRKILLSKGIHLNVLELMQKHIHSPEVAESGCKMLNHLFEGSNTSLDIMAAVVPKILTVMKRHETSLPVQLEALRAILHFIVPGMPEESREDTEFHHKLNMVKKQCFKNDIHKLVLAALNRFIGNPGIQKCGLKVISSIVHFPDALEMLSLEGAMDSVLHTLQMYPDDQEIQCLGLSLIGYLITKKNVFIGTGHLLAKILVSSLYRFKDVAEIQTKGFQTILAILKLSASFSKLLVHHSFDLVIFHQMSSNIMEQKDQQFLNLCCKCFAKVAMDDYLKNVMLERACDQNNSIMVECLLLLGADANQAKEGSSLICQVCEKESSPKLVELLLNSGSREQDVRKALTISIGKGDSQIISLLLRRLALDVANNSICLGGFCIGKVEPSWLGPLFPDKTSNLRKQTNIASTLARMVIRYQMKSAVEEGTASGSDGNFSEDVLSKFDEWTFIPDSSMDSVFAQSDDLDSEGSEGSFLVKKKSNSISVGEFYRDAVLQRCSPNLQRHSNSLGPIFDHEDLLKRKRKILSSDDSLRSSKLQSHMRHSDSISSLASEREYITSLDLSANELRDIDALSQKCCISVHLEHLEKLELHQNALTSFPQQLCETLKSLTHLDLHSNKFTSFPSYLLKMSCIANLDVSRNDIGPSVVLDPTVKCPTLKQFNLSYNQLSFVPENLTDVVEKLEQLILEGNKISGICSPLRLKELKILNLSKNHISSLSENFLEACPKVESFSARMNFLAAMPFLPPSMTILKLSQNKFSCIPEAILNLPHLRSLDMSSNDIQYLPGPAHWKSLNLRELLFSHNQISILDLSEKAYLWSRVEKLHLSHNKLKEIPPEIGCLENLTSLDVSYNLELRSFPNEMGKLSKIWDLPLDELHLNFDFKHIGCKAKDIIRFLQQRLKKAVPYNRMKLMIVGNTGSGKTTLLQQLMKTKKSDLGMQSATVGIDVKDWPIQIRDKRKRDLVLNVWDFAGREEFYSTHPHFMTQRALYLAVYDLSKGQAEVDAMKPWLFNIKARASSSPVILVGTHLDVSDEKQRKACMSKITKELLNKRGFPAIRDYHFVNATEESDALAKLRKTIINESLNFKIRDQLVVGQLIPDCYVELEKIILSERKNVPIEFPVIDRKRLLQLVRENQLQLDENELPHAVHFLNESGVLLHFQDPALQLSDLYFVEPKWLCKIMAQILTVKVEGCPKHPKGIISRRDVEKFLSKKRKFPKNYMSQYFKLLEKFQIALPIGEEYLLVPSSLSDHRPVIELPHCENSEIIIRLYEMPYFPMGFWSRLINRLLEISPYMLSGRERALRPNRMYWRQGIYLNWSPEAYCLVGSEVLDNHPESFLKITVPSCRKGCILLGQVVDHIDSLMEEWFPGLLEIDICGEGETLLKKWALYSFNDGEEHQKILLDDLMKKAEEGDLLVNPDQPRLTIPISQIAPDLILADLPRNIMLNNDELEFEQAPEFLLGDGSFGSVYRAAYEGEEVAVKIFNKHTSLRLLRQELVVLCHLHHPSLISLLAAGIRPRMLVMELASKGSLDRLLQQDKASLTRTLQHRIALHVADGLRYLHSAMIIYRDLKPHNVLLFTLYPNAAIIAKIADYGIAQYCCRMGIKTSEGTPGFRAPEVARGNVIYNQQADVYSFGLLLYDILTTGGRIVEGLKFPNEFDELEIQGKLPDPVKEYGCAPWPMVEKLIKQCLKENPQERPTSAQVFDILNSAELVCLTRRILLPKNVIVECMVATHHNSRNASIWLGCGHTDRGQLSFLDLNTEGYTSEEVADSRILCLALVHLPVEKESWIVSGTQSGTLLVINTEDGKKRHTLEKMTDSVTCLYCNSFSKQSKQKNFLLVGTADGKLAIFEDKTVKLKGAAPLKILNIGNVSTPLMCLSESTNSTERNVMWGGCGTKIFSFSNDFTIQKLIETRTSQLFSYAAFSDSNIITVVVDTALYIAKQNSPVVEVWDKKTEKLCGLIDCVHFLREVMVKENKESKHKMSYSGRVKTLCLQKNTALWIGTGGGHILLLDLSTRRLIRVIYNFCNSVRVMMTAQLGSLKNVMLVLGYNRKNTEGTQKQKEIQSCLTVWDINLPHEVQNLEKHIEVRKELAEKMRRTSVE
The reaction is initiated by the addition of the Mg/ATP mix.
Take `CC[C@H](C)Oc1nn(C)cc1Nc1ncc2cc(C#N)n([C@@H]3COC[C@@H]3OC)c2n1` [Example 67, 2-((3-((S)-sec-Butoxy)-1-methyl-1H-pyrazol-4-yl)amino)-7-((3R,4R)-4-methoxytetrahydrofuran-3-yl)-7H-pyrrolo[2,3-d]pyrimidine-6-carbonitrile]: the IC50 (as a rule, the point on the concentration scale where inhibition reaches its midpoint) turned out to be 0.297 µM.
In turn, `CO[C@H]1COC[C@H]1n1c(C#N)cc2cnc(Nc3ccnc4c3OC(C)(C)CC4)nc21` [Example 68, 2-((2,2-Dimethyl-3,4-dihydro-2H-pyrano[3,2-b]pyridin-8-yl)amino)-7-((3R,4R)-4-methoxytetrahydrofuran-3-yl)-7H-pyrrolo[2,3-d]pyrimidine-6-carbonitrile] gave an IC50 of more than 1 µM.
`CO[C@H]1COC[C@H]1n1c(C#N)cc2cnc(Nc3ccnc4c3O[C@H](C)CCO4)nc21` [Example 69, 7-((3R,4R)-4-Methoxytetrahydrofuran-3-yl)-2-(((R)-2-methyl-3,4-dihydro-2H-[1,4]dioxepino[2,3-b]pyridin-9-yl)amino)-7H-pyrrolo[2,3-d]pyrimidine-6-carbonitrile] displayed an IC50 of 0.597 µM.
As to `CC(C)Oc1nn(C)cc1Nc1ncc2cc(C#N)n(C3COC3)c2n1` [Example 75, 2-((3-Isopropoxy-1-methyl-1 H-pyrazol-4-yl)amino)-7-(oxetan-3-yl)-7H-pyrrolo[2,3-d]pyrimidine-6-carbonitrile], the IC50 amounted to 0.044 µM.
To `[2H]c1c(Nc2ncc3cc(C#N)n([C@H]4COC[C@@H]4C)c3n2)c(OC2COC2)nn1C` [Example 94, 2-((1-Methyl-3-(oxetan-3-yloxy)-1 H-pyrazol-4-yl-5-d)amino)-7-((3R,4R)-4-methyltetrahydrofuran-3-yl)-7H-pyrrolo[2,3-d]pyrimidine-6-carbonitrile] belongs 0.007 µM; to `[2H]c1c(Nc2ncc3cc(C#N)n([C@@H](C)COC)c3n2)c(OC2CC2)nn1COC` [Example 95, (S)-2-((3-cyclopropoxy-1-(methoxymethyl)-1H-pyrazol-4-yl-5-d)amino)-7-(1-methoxypropan-2-yl)-7H-pyrrolo[2,3-d]pyrimidine-6-carbonitrile], 0.016 µM; to `[2H]c1c(Nc2ncc3cc(C#N)n([C@H]4COC[C@@H]4C)c3n2)c(OC2COC2C)nn1C` (stereo partly drawn) [Example 97, 2-((1-methyl-3-((2-methyloxetan-3-yl)oxy)-1H-pyrazol-4-yl-5-d)amino)-7-((3R,4R)-4-methyltetrahydrofuran-3-yl)-7H-pyrrolo[2,3-d]pyrimidine-6-carbonitrile], 0.012 µM.
Compound `[2H]c1c(Nc2ncc3cc(C#N)n([C@H]4COC[C@@H]4C)c3n2)c(OC2COC2)nn1C([2H])([2H])[2H]` [Example 98, 2-((1-(methyl-d3)-3-(oxetan-3-yloxy)-1H-pyrazol-4-yl-5-d)amino)-7-((3R,4R)-4-methyltetrahydrofuran-3-yl)-7H-pyrrolo[2,3-d]pyrimidine-6-carbonitrile] showed an IC50 of 0.012 µM.
